From patent US5424395A (priority 1992, dated 1995)
Entries after “also recorded” stand apart in the source; their conditions may differ. Where no end group is shown, it is not given here.

Assays:
[1] = extracellular fluid (ECF) from tobacco leaf in 50 mM Tris, pH 7.4; details: 37° C., up to one hour
[2] = tested on: extracellular plant proteases; assay: Resistance to proteolytic degradation by leaf extracellular fluid (ECF), HPLC; type: in vitro ADME, tobacco; details: 2.5% (v/v) ECF, 50 mM Tris pH 7.4, 37° C., one hour, relative to area of parent peak with no added ECF
Source text: To determine the sensitivity of AMPPPs to extracellular proteases, and to determine the site of processing by these proteases, a system was designed to obtain extracellular fluid from leaves of maize, tobacco, and potato and to use these to test the stability of AMPPPs.
Extracellular fluid (ECF) was obtained in accordance with Z. Klement, "Method Of Obtaining Fluid From the Intercellular Space of Foliage and the Fluid's Merit As Substrate For Phytobacterial Pathogens," supra by cutting interveinal pieces from tobacco leaf after they were rinsed in deionized water. The segments were submerged in water in a vacuum desiccator and vacuum was applied for five to 10 minutes. The vacuum was released slowly, the leaves were blotted dry and four to five pieces were rolled and placed in a 50 mL disposable syringe barrel cut down so as to be able to fit in a swinging bucket centrifuge rotor. The syringe barrel was placed in a 50 mL screw cap conical centrifuge tube and centrifuged in a swinging bucket rotor at 500×g for 30 minutes. […]
Peptides were analyzed by reverse phase chromatography on a 4.6 mm×250 mm Vydac C-4 protein column (Nest Group, Southboro, Mass.) using a 0% to 60% acetonitrile gradient in 0.1% TFA in 30 minutes on a Hewlett-Packard HP1090 high pressure liquid chromatograph (Hewlett-Packard, Avondale, Pa.). […] These peptides were purified and analyzed by FAB-MS and amino acid analysis. […]

P3 Fusarium [3] = assay: Antifungal bioassay (spore germination MCIC); type: cell-based, P3 Fusarium (field isolate); details: lowest concentration with no spore germination, after 24 hours
Experimental: (§1) Fungi are grown on an appropriate medium, in this case a potato dextrose agar plate, for several weeks. At the end of that period, the plate was flooded with about 5 mL of sterile distilled water to harvest spores. The spore concentration was determined by use of a hemocytometer and the spore suspension was stored in a sterile tube at 4° C. until it was needed. Then 82 microliters of potato dextrose broth and 3 microliters of spore suspension (ranging from 10^5 to 10^7 spores total) was then added to 12 wells in a 96 well microtiter plate for each AMPPP to be tested, with 1-4 replicate sets of 12 wells prepared for each AMPPP within a single experiment. […] The amount of spore germination and fungal growth was recorded as a qualitative measurement at each observation time using a system of pluses and minuses: [-] meant no germination having occurred, [+] meant swollen spores with an extended germ tube, [++] meant the beginnings of mycelial growth with the overall appearance of a loose lattice, and [+++] meant a dense mycelial growth with the overall appearance of a thick opaque meshwork. The MCIC value for each AMPPP tested was then recorded, where the MCIC value is defined as the lowest peptide concentration at which no spore germination occurred (rating=[-]). […]

[4] = tested on: Erwinia carotovora carotovora strain SR319 (Ecc SR319); assay: Antibacterial bioassay, minimum complete inhibitory concentration (MCIC); type: cell-based; details: for activity against Ecc SR319 (in words): even at concentrations higher than 150 micrograms AMPPP/mL; for MEAN MCIC VALUE: lowest peptide concentration with no bacterial growth, after 20 hours, Luria broth, 28° C., mean of at least three replicate experiments
Experimental: Erwinia carotovora carotovora strain SR319 (Ecc SR319) (a gift of Dr. C. H. Liao, USDA-ARS, Philadelphia, Pa.) was streaked on a plate of LB agar and grown overnight at 28° C. After 24 hours, a loopful of Ecc SR319 was picked from the agar plate and was added to 3 mL of Luria broth (10 g Bacto-tryptone, 5 g Bacto-yeast extract, and 10 g sodium chloride per liter of solution; autoclaved sterile) in a capped, sterile 10 mL test tube. This culture was grown overnight before its optical density at 630 nm was recorded using a Dynatech MR600 microplate reader (Dynatech Laboratories, Inc., Alexandria, Va.). A portion of the overnight culture was adjusted with Luria broth to obtain a culture with an optical density at 630 nm of 0.2. About 250 microliters of this culture was added to 2250 microliters of Luria broth in a capped, sterile 10 mL test tube before this diluted culture was grown for 3 hours at 28° C. in a shaking incubator. The optical density at 630 nm of the freshly grown culture was recorded and a portion of this mid-logarithmic growth phase culture was diluted 1000-fold with Luria broth to an approximate concentration of about 10^5 colony forming units per mL of culture. About 85 microliters of this diluted culture was added to 12 wells in a 96 well microtiter plate for each AMPPP to be tested, with 1-4 replicate sets of 12 wells prepared for each AMPPP within a single experiment. Stock solutions of each AMPPP were prepared at a concentration of 1 mg/mL and 0-15 microliters of each peptide stock solution were added to a single well in the microtiter plate followed by a sufficient volume of water to bring the total well volume to 100 microliters. Typical peptide volumes assayed were 0, 1, 2, 3, 4, 5, 6, 7, 8, 9, 10 and 15 microliters, which corresponds to a final peptide concentration in the range of 0-150 micrograms/mL. The microtiter plates were sealed with parafilm and incubated on a shaking platform at 28° C. for 44 hours. The optical density of each Ecc SR319 culture well was recorded at 20 hours and then at 44 hours. A minimum complete inhibitory concentration (MCIC) was then determined for each replicate set of varying peptide concentrations for each AMPPP whereby the MCIC is defined as the lowest peptide concentration at which no bacterial growth was observed. Table I lists mean MCIC values computed after 20 hours of treatment from at least three replicate experiments with each AMPPP. "Met(S)(O)" and "Met(R)(O)" refer to the diastereomeric forms of a methionine sulfoxide residue.
Although most of the AMPPP compounds listed in Table I were greater than 95% homogeneous following reverse phase HPLC purification, AMPPPs #24-26 and #28 were only 50-80% pure following partial purification and salt exchange by ion exchange chromatography.

Trichoderma reesei = assay: Antifungal bioassay (spore germination MCIC); type: cell-based; details: lowest concentration with no spore germination, after 24 hours
Experimental: as §1

P3 Fusarium [5] = assay: Effect of ECF or spent media on antifungal activity of AMPPPs; type: cell-based; details: ECF source Tobacco Leaf, 10% (v/v); comparison of MCIC with and without ECF
Source text: It is critical to understand the effect of plant proteolytic enzymes on AMPPP activity because any AMPPP applied to crop plants will be in contact with plant tissues and any associated plant proteases. It is important to assess the bioactivity of an AMPPP which may be cleaved by one or more plant proteases as well as to recognize that such an event has occurred. An extract of extracellular fluid (ECF) as described in Example 14 is a useful reagent in determining such loss of antimicrobial activity of AMPPPs due to exposure to plant proteases in the extracellular compartment of plant tissues. Bioassay experiments were conducted with 300-1000 pregerminated P3 Fusarium spores essentially as described in Example 13 for various AMPPPs exposed to ECF from several crop species, or exposed to spent media collected as a supernatant from centrifuged three-day-old P3 Fusarium cultures grown in potato dextrose broth (PDB), corn stalk medium (CSM), or water as detailed below. The only major difference in the bioassay method used from that described in Example 13 was that the bioassay was conducted in a total culture volume of 10 microliters rather than 100 microliters. ECF was present in these bioassays at a final concentration of 10% (v/v) and was added concurrently with an AMPPP to the Fusarium spores at various AMPPP concentrations. […]

Substance: GIGKFLFSAKKFGKAFVGEIMNS-OH
- cleaved bond [1]: Phe7-Ser8

Substance: GIGKFLHAAKKFGKAFVGEIMNS-OH
- cleaved bond [1]: His7-Ala8

Substance: GIGKFLHEAKKFGKAFVGEIMNS-OH
- cleaved bond [1]: His7-Glu8

Substance: GIGKFLHSAGKFGKAFVGEIMKS-OH
- cleaved bond [1]: His7-Ser8

Substance: GIGKFLHSAKKFGKAFVGEIMNS [AMPPP 1, Magainin 2-OH]
- Total Area Under Chromatogram Peaks: Fragment Gly^1 Xaa^7 [2]: 15.2%
- remaining at 1 h ([2]; cerebrospinal or other body fluid, read-out: Total Area Under Chromatogram Peaks: Parent AMPPP): 54.4%

Substance: GIGKFLHSAKKFGKAFVGEIMNS-OH
- cleaved bond [1]: His7-Ser8; also recorded: Met21-Asn22

Substance: GIGKFLHTAKKFGKAFVGEIMNS-OH
- cleaved bond [1]: His7-Thr8

Substance: GIGKFLKSAKKFGKAFVGEIMNS-OH
- cleaved bond [1]: Lys7-Ser8

Substance: GIGKFLRSAKKFGKAFVGEIMNS-OH
- cleaved bond [1]: Arg7-Ser8

Substance: [Met^21 (R)(O)]Mag 2-OH [AMPPP 7]
- Mean MCIC Values against: P3 Fusarium (10^7 spores) (P3 Fusarium [3]): 50 micrograms/mL
- activity against Ecc SR319 (in words) [4]: not active
- MEAN MCIC VALUE [4]: > 150 micrograms/mL
- Mean MCIC Values against: Trichoderma reesei (10^6 spores) (Trichoderma reesei): 75 micrograms/mL

Substance: [Met^21 (S)(O)Mag 2-OH [AMPPP 6]
- Mean MCIC Values against: P3 Fusarium (10^7 spores) (P3 Fusarium [3]): 40 micrograms/mL
- Approximate % Reduction in Antifungal Activity by ECF (P3 Fusarium [5]): 50%
- activity against Ecc SR319 (in words) [4]: not active
- MEAN MCIC VALUE [4]: > 150 micrograms/mL
- Mean MCIC Values against: Trichoderma reesei (10^6 spores) (Trichoderma reesei): 75 micrograms/mL
